Reference: PubChem BioAssay AID2252 (Southern Research Specialized Biocontainment Screening …, 2010)

Each compound was assayed on THP-1 viability, CellTiter-Glo luminescence, 72 h (assay: PubChem AID 2252).
`CN1CCN(C2=Cc3ccccc3Sc3cc(F)ccc32)CC1` gave an EC50 of 8.09 µM. In the case of `CCCCCCCCCCCCOC(=O)C[N+](C)(C)C`, the EC50 is reported as 23.7 µM. In the case of `C=CCNc1ncnc2c1[nH]c1ccc(Cl)cc12`, the EC50 is reported as 7.13 µM. `CCn1ncc(/C=N\NC(=O)c2csc3ccccc23)c1C` gave an EC50 of 19.1 µM. For `Cc1ccc2cc(CN(CCN(C)C)C(=O)Nc3ccc(Cl)cc3)c(=O)[nH]c2c1`, the EC50 was 19.1 µM. Work on `Nc1nc(=S)c2[nH]cnc2[nH]1` yielded an EC50 of 0.32 µM. In the case of `CN1CCN(C(c2ccc(Cl)cc2)c2cc(Cl)c3cccnc3c2O)CC1` (stereo not drawn), the EC50 is reported as 3.11 µM. In the case of `OCCN1CCN(CCCN2c3ccccc3Sc3ccc(C(F)(F)F)cc32)CC1`, the EC50 is reported as 12.7 µM. `O=C(/C=C/c1ccccc1)NC(=S)NNC(=O)c1cnccn1` gave an EC50 of 4.6 µM. `COc1ccc2nc(Nc3ccccc3)sc2c1` was tested, and the EC50 was less than 0.1 µM. For `Cn1c(N/N=C/c2c[nH]c3ccccc23)nc2ccccc21`, the EC50 was 8.11 µM. In the case of `Cc1cc(C(C)(C)CC(C)(C)C)ccc1OCCOCC[N+](C)(C)Cc1ccccc1`, the EC50 is reported as 1.18 µM. With `CN(C)CCCNc1cc(C(C)(C)C)nc2c(-c3ccccc3)cnn12` the EC50 was 6.48 µM. In the case of `C[C@H]1c2cccc(O)c2C(O)=C2C(=O)[C@]3(O)C(O)=C(C(N)=O)C(=O)[C@@H](N(C)C)[C@@H]3[C@@H](O)[C@@H]21`, the EC50 is reported as 29 µM. `Nc1c(Cl)ncnc1N/N=C/c1ccccn1` gave an EC50 of 0.36 µM. `CSc1ccc2c(c1)C(N1CCN(C)CC1)Cc1ccccc1S2` (stereo not drawn) showed an EC50 of 9.33 µM. For `C=CCc1cc(Cl)ccc1OCCCNCCO`, the EC50 was 43.1 µM. `O=[N+]([O-])c1cc(Cl)cc(/C=N/NC(=S)Nc2ccc(S(=O)(=O)N3CCOCC3)cc2)c1O` was tested, and the EC50 was 27.1 µM. Compound `O=C(N/N=C\c1c[nH]c2ccccc12)c1ccc(O)cc1` has an EC50 of less than 0.1 µM. `CCN(CC)CCNc1nc(-c2ccc(OC)cc2)c(-c2ccc(OC)cc2)s1` gave an EC50 of 22.3 µM. Work on `OCCN1CCN(C2Cc3cc(Cl)ccc3Sc3ccc(Cl)cc32)CC1` (stereo not drawn) (tested in a mixture with another compound) yielded an EC50 of 7.79 µM. In the case of `Cc1ccccc1C(=O)Nc1cccc(C(=O)N/N=C/c2cc(Cl)cc([N+](=O)[O-])c2O)c1`, the EC50 is reported as 12.4 µM. `Cc1cc(O)c2c(c1)C(=O)C13C(=C2O)C(=O)[C@H]2[C@@H](O)[C@@H]1[C@H]1[C@H](O)[C@@H]3C(=O)C3=C(O)c4c(O)cc(C)cc4C(=O)C312` (stereo partly drawn) showed an EC50 of 6.36 µM. `Clc1ccc(OCCCNCc2ccccc2)c2ccccc12` was tested, and the EC50 was 23.4 µM. For `CNC[C@H](Cc1ccccc1)NC[C@@H](Cc1cccc2ccccc12)NCCc1ccc(C)cc1`, the EC50 was 4.01 µM. For `O=C(O)c1csc(-c2ccc(Cl)cc2)n1`, the EC50 was less than 0.1 µM. For `CC1CCC(C(C)C)C(OC(=O)C[n+]2cc(-c3ccc(Cl)cc3)n3c2CCC3)C1` (stereo not drawn), the EC50 was 16.5 µM. In the case of `C[C@H]1c2cccc(O)c2C(O)=C2C(=O)C3(O)C(O)=C(C(N)=O)C(=O)[C@@H](N(C)C)[C@@H]3[C@@H](O)[C@@H]21` (stereo partly drawn), the EC50 is reported as 30.3 µM. Work on `Cc1cccc(/C(N)=N/OC(=O)N2CCOCC2)c1` yielded an EC50 of 8.03 µM. Compound `CN1CCN(C2=Cc3ccccc3Sc3cc(F)c(Cl)cc32)CC1` has an EC50 of 18.2 µM. In the case of `CN(O)/C=c1/ccc2c(n1)C(=O)C=CC=2`, the EC50 is reported as 25.5 µM. `COc1cc([N+](=O)[O-])cc(/C=N/NC(=O)c2cccnc2)c1O` gave an EC50 of 29.7 µM. Work on `CCN(CC)c1ccc(/C=N/NC(=O)c2ccc3nc[nH]c3c2)c(O)c1` yielded an EC50 of 0.9 µM. `N=c1c2c(-c3ccccc3)c(-c3ccccc3)n(Cc3ccco3)c2ncn1CCCn1ccnc1` was tested, and the EC50 was 7.71 µM. `O=C(C[n+]1cc(Br)cc2ccccc21)c1ccc(F)cc1` was tested, and the EC50 was less than 0.1 µM. Compound `O=Nc1c(O)c2ccccc2c2ccccc12` has an EC50 of 3.08 µM. With `O=[N+]([O-])c1cc(O)c2ncccc2c1` the EC50 was 5.78 µM. `CCOC(=O)c1cc(-c2ccc(F)cc2)n(CCC(=O)NC2CCN(Cc3ccccc3)CC2)c1C` showed an EC50 of 18.9 µM. `O=C(NC(=C(Cl)Cl)S(=O)(=O)c1ccc(Cl)cc1)c1ccccc1` gave an EC50 of 23.2 µM. With `Oc1c(Br)cc(Br)cc1C=Nc1cccc2ncccc12` the EC50 was 12.9 µM. In the case of `O=C(CN1C2=NCCCN2c2ccccc21)c1ccc([N+](=O)[O-])cc1`, the EC50 is reported as 32.5 µM. For `O=[N+]([O-])c1cc(/C=N/Nc2nc3ccccc3[nH]2)c(O)cc1O`, the EC50 was 1.7 µM. Work on `Cc1ccc(-n2[nH]c(C)c(C=NCc3ccncc3)c2=O)cc1` yielded an EC50 of 31.6 µM. For `C[C@H]1c2cccc(O)c2C(O)=C2C(=O)[C@]3(O)C(O)=C(C(N)=O)C(=O)[C@@H](N(C)C)C3[C@@H](O)C21` (stereo partly drawn), the EC50 was 27.5 µM. With `C1=C(CCNc2ncnc3c2[nH]c2ccccc23)CCCC1` the EC50 was 5.45 µM. For `O=C(NCc1ccco1)C1CCN(C(=O)c2cc3sccc3n2Cc2ccc(Cl)cc2)CC1`, the EC50 was 27.8 µM. In the case of `Oc1ccc(/C=N/N=C(c2ccccc2)c2ccccc2)c(O)c1O`, the EC50 is reported as 7.47 µM. `CN(C)CCCN1c2ccccc2Sc2ccccc21` was tested, and the EC50 was 32.6 µM. In the case of `COc1cc(CNc2ccc(N3CCN(C(C)=O)CC3)cc2)ccc1OCc1ccccc1`, the EC50 is reported as 6.5 µM. In the case of `C[C@@H](NC(=O)/C(C#N)=C/c1ccc(O)c(O)c1)c1ccccc1`, the EC50 is reported as 15.2 µM. `CC1=C([N+](=O)[O-])C(c2ccccc2)C2=C(N1)c1ccccc1C2=O` (stereo not drawn) showed an EC50 of 1.01 µM. `O=C(N/N=C/c1cc(Cl)ccc1O)c1ccncc1` was tested, and the EC50 was 6.13 µM. `COc1cccc(CNCCc2c[nH]c3ccccc23)c1OCc1ccccc1` gave an EC50 of 6.18 µM. `CC[C@@H](C)[C@H](CN[C@H](CNC)C(C)C)NC[C@@H](C)c1ccc(CC(C)C)cc1` gave an EC50 of 5.96 µM. `C#CCOCCOCCOCCNc1nc(N2CCN(C(=O)CCCCCCCCCCNC(=O)[C@H]([C@@H](C)CC)n3cc(CCCCCN)nn3)CC2)nc(N2CCN(C(=O)CCCCCCCCCCNC(=O)[C@@H]([C@H](C)O)n3cc(C)nn3)CC2)n1` gave an EC50 of 13 µM. Compound `CNCCC=C1c2ccccc2CCc2ccccc21` has an EC50 of 22.5 µM. `COc1ccc(/C=C/c2cc(-c3ccc(C)cc3)o[n+]2C)cc1` was tested, and the EC50 was 1.27 µM. Work on `NC(N)=N/N=C/c1ccc(OCc2ccc(Cl)cc2)cc1` yielded an EC50 of 5.57 µM. Compound `Oc1ccc(/C=N/Nc2nccnc2Cl)c(O)c1` has an EC50 of 1.63 µM. With `COc1ccc(/C=N/Nc2cc(C)nc3c(C)cccc23)cc1` the EC50 was 5.61 µM. `O=C1CN(/N=C/c2ccc([N+](=O)[O-])o2)C(=O)N1` was tested, and the EC50 was 47.3 µM. For `C=CCn1c(NS(=O)(=O)c2ccccc2)c(S(=O)(=O)c2ccc(C)cc2)c2nc3ccccc3nc21`, the EC50 was 40.9 µM. `COc1cccc(Nc2nc(NCCO)c3ccccc3n2)c1` showed an EC50 of 2.26 µM. In the case of `Nc1nonc1-n1nnc(C(=O)N/N=C/c2ccccc2O)c1CN1CCCC1`, the EC50 is reported as 8.87 µM. Work on `c1cc2c(cc1C1CCCCC1)c1c3n2CCN=C3CCC1` yielded an EC50 of 11.9 µM. Compound `OC1CCCN(Cc2ccc3ccc4cccc5ccc2c3c45)C1` (stereo not drawn) has an EC50 of 15.2 µM. Compound `CC1CCC(C(C)C)C(OC(=O)Cn2c(-c3ccc(Cl)cc3)[n+](C)c3ccccc32)C1` (stereo not drawn) has an EC50 of 2.22 µM. With `CN(C)CCOCCOc1ccc(Cl)c2ccccc12` the EC50 was 48.3 µM. For `O=C(NNC(=S)NC(=O)c1ccccc1)c1ccc(O)cc1`, the EC50 was 14.3 µM. Compound `Nc1ncn(C2O[C@H](CO)[C@@H](O)[C@H]2O)c(=O)n1` (stereo partly drawn) has an EC50 of 14 µM. With `Clc1cc(Br)ccc1OCCCNCc1ccccc1` the EC50 was 14.7 µM. In the case of `N=c1n(CC(=O)c2ccc(Br)s2)c2ccccc2n1Cc1ccccc1`, the EC50 is reported as 4.4 µM. Compound `Cc1cc(OCCCCCN2CCCC2)ccc1Cl` has an EC50 of 48.7 µM. `COc1ccc(CNCCc2c[nH]c3ccccc23)c(OC)c1C` gave an EC50 of 8.57 µM. Compound `COc1cccc(/C=N/NC(=O)CSCC(=O)Nc2ccccc2)c1O` has an EC50 of 5.26 µM. Compound `O=C(CCN1CCOCC1)c1ccc(Br)cc1` has an EC50 of 43.2 µM. Compound `CSc1ccc2c(c1)N(CCC1CCCCN1C)c1ccccc1S2` (stereo not drawn) has an EC50 of 13 µM. `O=C1c2ccccc2C(=O)N1CCCP(=O)(O)CCc1ccccc1` gave an EC50 of less than 0.1 µM. `Nc1c2ccccc2nc2ccccc12` showed an EC50 of 4.83 µM. `c1ccc(Nc2ccnc(Nc3ccccc3)n2)cc1` was tested, and the EC50 was 41.7 µM. Work on `c1ccc2cc3c(NCCN4CCOCC4)ccnc3cc2c1` yielded an EC50 of 3.7 µM. With `CCCN1CCC(NCc2cn(C)nc2-c2ccc(Oc3ccccc3)cc2)CC1` the EC50 was 9.72 µM. Work on `COc1cccc2[nH]c3c(N4CCN(Cc5ccc6c(c5)OCO6)CC4)ncnc3c12` yielded an EC50 of 42.2 µM.
